According to patent publication US10654834B2 (Venenum Biodesign, LLC, priority 2016, dated 2020):
Like-named read-outs stand apart in the source and are kept apart here.

What was measured:
[1] = Portal vein versus systemic pharmacokinetics in hepatic portal vein cannulated CD(SD) rats; type: in vivo; details: male, rat, 10 mg/kg oral; for AUC(0-t): read-out: AUC (0→7 h)
Protocol: Low Level of Compounds is Attributed to Low Intestinal Absorption
In this study, we determined if low plasma level of the compounds of the present invention is due to low absorption in the gut, or due to the first pass effect (i.e., absorption followed by a rapid degradation of compounds by liver). Hepatic portal vein cannulated male CD(SD) rats obtained from Charles River Laboratory were utilized. In brief, Compound 268 was administered orally at 10 mg/kg, and the blood was obtained simultaneously from the portal vein and systemic circulation (retro-orbital sinus) at predose, 0.25, 0.5, 1, 2, and 4 hours post-dose, in EDTA coated tubes. The samples were processed into plasma and quantification of compound levels in the plasma was accomplished by means of LC-MS/MS analysis as described in Example 81.

[2] = system: GLP-1; assay: Plasma GLP-1 time course after a single oral dose in DIO mice; type: in vivo, mouse; details: 30 mg/kg + sitagliptin versus sitagliptin alone, 6-24 h
Protocol: In this study, we evaluated if the observed GLP-1 elevation (induced by the compounds of the present invention) may be associated with gallbladder filling. We treated mice with Compound 268 and monitored the bile weight (a measure that indicated gallbladder filling) to determine if the compound retained more bile in the gallbladder as compared to the control mice (i.e., vehicle alone). A time course study was performed to measure weight of the bile aspirated from the gallbladder after oral administration of Compound 268 (30 mg/kg) in high fat diet induced obese (DIO) mice. In this study, GLP-1 levels were also measured at each time point (FIG. 9).
Approximately 12 week old DIO male mice (obtained from Taconic) were acclimated in the testing facility for over two weeks. The mice were provided a high fat diet [Research Diet D12492 (60% Fat kcal)] while in the testing facility. […] The blood samples were distributed as follows: 150-200 μL of blood were placed in an EDTA K^2+ tube containing 5 μL of 40 mg/mL aprotinin (Sigma A1153) and 1 μL of 10 mM sitagliptin (Sigma 58576) to be used for GLP-1 measurements; the remaining blood (≥250 μL) was placed in an EDTA K^2+ tube and plasma was processed for analytical chemistry and analyzed by LCMS/MS method as described in Example 81. […]

[3] = system: blood glucose; assay: OGTT and insulin measurements after 5 weeks of dosing in DIO mice; type: in vivo, mouse
Excerpt: In the next series of studies (Examples 93-99), Male DIO mice were received at 12 weeks of age (from Taconic), and were single-housed at the testing facility and acclimated for at least 2 weeks. The mice were provided a high fat diet [Research Diet D12492 (60% Fat kcal)] while in the testing facility. Before the study initiation, the animals were randomized into 5 experimental groups by body weight. The vehicle group contained only 0.5% carboxymethylcellulose (medium viscosity)+0.25% Tween-80. The second group contained 10 mg/kg of the DPP-IV inhibitor Sitagliptin while the third group contained 30 mg/kg Compound 268. The fourth group contained the combination of 10 mg/kg Sitagliptin and 30 mg/kg Compound 268. The fifth group was the positive control for weight loss, Rimonabant. All mice were dosed BID at approximately 6:00 am and again at approximately 4:00 pm. The positive control rimonabant was administered at a dose of 10 mg/kg in the afternoon and the morning dosing was vehicle (no compound). […]
Compounds of the present invention were dosed for multiple weeks and were evaluated for their effectiveness in glycemic control. […] Insulin is also analyzed using Meso Scale Discovery according to the manufacturer's directions (item number K152BZC). Plasma samples ([…]) were loaded in duplicate onto the assay plate and measured against internal standards.

[4] = Bile weight after chronic dosing (5 days) in DIO mice; type: in vivo, mouse; details: 30 mg/kg + sitagliptin 10 mg/kg, after second and tenth treatment, versus sitagliptin alone
Protocol: Bile Weight after Chronic Dosing of Compounds
In this study, chronic dosing of compounds of the present invention was examined to determine if they lead to an increase in bile weight.
FIG. 13 depicts the time course of bile weight changes over time (i.e., 0, 3, 6, 9, and 12 hours) after the second and the tenth treatment with Compound 268 using the protocol in Example 87.

[5] = Plasma concentration of compound in DIO mice over 24 hours; type: in vivo, mouse; details: 30 mg/kg p.o. + sitagliptin 10 mg/kg, 6, 12, 18, 24 h
Protocol: Plasma Concentration of Compound in Mice
In these studies, the plasma concentration of the compounds of the present invention was measured in DIO mice as well as lean C57BL/6N mice.
In the first study, (data represented in FIG. 10), plasma concentration levels were measured over a 24 hour time period in DIO mice. Following the treatment with the compound, the blood was collected via cardiac puncture at 6, 12, 18, and 24 hours. The blood samples (>250 μL) were placed in an EDTA K^2+ tube and plasma was processed for analytical chemistry and analyzed by LCMS/MS method as described in Example 81. FIG. 10 depicts the plasma concentrations of Compound 268 after oral administration at 30 mg/kg in combination with 10° mg/kg sitagliptin. The plasma concentrations of Compound 268 were below 10 nM at every tested time points.

[6] = plasma (portal vein blood), Portal Vein bleed
[7] = plasma (systemic blood), Peripheral bleed (retro-orbital sinus)

## N#Cc1ccc(CCNC(=O)[C@@H]2CCN2c2cc(N3CCC(CCNC(=O)NCCC(=O)O)CC3)nc(C(F)(F)F)n2)cc1 [Compound 268, (S)-3-(3-(2-(1-(6-(2-((4-cyanophenethyl)carbamoyl)azetidin-1-yl)-2-(trifluoromethyl)pyrimidin-4-yl)piperidin-4-yl)ethyl)ureido)propanoic acid]
[1]; [6]
  Cmax: 15.7 ± 6.7 ng/mL
  Tmax: 15 to 60 min
  AUC(0-t): 49.1 ± 47.3 ng·h/mL
[1]; [7]
  Cmax: 43.9 ± 50.2 ng/mL
  Tmax: 15 to 60 min
  AUC(0-t): 76.2 ± 84.3 ng·h/mL
[2]
  plasma GLP-1 levels: significant elevation of GLP-1 levels
[3]; 30 mg/kg + sitagliptin 10 mg/kg BID, versus vehicle
  glucose levels in OGTT after 5 weeks of dosing: reduced the glucose levels relative to vehicle
[3]; BID dosing
  insulin levels in OGTT after 5 weeks of dosing: increased the sensitivity of the mice to insulin
[4]
  bile weight after chronic dosing: no significant changes in bile weight
[5]
  plasma concentration of compound: below 10 nM
